# Earlier results in PubChem BioAssay AID1259409 (Chemical Carcinogenesis Research Information System (CCRIS), 2018).
# System: rodent chemically induced tumor inhibition, incidence and multiplicity
# Test: CCRIS tumor inhibitor studies
smiles,measurement,setting,value
S=C=NCCCCCCCCCCc1ccccc1,"tumour outcome (control, treated, inhibition, significance)","Carcinogen: 4-(METHYLNITROSAMINO)-1-(3-PYRIDYL)-1-BUTANONE, 64091-91-4, Dose [Inhibitor]: 0, 0.04 UMOL ONCE 2 HR PRIOR TO CARCINOGEN DOSE (STUDY DURATION: 16 WK), Route [Inhibitor]: GAVAGE, Species: MOUSE, Strain/Sex: STRAIN-A/FEMALE, Target Tissue: Type of Lesion: LUNG: ADENOMA, Dose [Carcinogen]: 10 UMOL IN 0.1 ML SALINE ONCE, Promoter: NONE USED","100%, 100%, 0%, not significant"
same,"tumour outcome (control, treated, inhibition, significance)","Carcinogen: 4-(METHYLNITROSAMINO)-1-(3-PYRIDYL)-1-BUTANONE, 64091-91-4, Dose [Inhibitor]: 0, 0.1 UMOL ONCE 2 HR PRIOR TO CARCINOGEN DOSE (STUDY DURATION: 16 WK), Route [Inhibitor]: GAVAGE, Species: MOUSE, Strain/Sex: STRAIN-A/FEMALE, Target Tissue: Type of Lesion: LUNG: ADENOMA, Dose [Carcinogen]: 10 UMOL IN 0.1 ML SALINE ONCE, Promoter: NONE USED","100%, 100%, 0%, not significant"
same,"tumour outcome (control, treated, inhibition, significance)","Carcinogen: 4-(METHYLNITROSAMINO)-1-(3-PYRIDYL)-1-BUTANONE, 64091-91-4, Dose [Inhibitor]: 0, 0.2 UMOL ONCE 2 HR PRIOR TO CARCINOGEN DOSE (STUDY DURATION: 16 WK), Route [Inhibitor]: GAVAGE, Species: MOUSE, Strain/Sex: STRAIN-A/FEMALE, Target Tissue: Type of Lesion: LUNG: ADENOMA, Dose [Carcinogen]: 10 UMOL IN 0.1 ML SALINE ONCE, Promoter: NONE USED","100%, 70%, 30%, p<0.05"
C=C1C[C@H]2[C@@H]3CC[C@H](OC(C)=O)[C@@]3(C)CC[C@@H]2[C@@]2(C)CCC(=O)C=C12,"tumour outcome (control, treated, inhibition, significance)","Carcinogen: NONE USED, Dose [Inhibitor]: 0, 1 SILASTIC CAPSULE (1.5, 2.0, AND 15 MM IN INNER AND OUTER DIAMETERS AND LENGTH, RESPECTIVELY) REPLACED AFTER 2 MO IN, Route [Inhibitor]: SUBCUTANEOUS IMPLANT, Species: MOUSE, Strain/Sex: SHN/FEMALE, Target Tissue: Type of Lesion: MAMMARY GLAND: TUMOR, Promoter: NONE USED","100%, 75%, 25%, p<0.01"
C=C(C)[C@@H]1CC[C@]2(C(=O)O)CC[C@]3(C)[C@H](CC[C@@H]4[C@@]5(C)CC[C@H](O)C(C)(C)[C@@H]5CC[C@]43C)[C@@H]12,"tumour outcome (control, treated, inhibition, significance)","Carcinogen: 7,12-DIMETHYLBENZ[A]ANTHRACENE, 57-97-6, Dose [Inhibitor]: 0, 5 UMOL 2/WK BEGINNING 1 WK POST CARCINOGEN TREATMENT AND CONTINUING FOR 18 WK (STUDY DURATION: 19 WK), Route [Inhibitor]: DERMAL, Species: MOUSE, Strain/Sex: ICR/FEMALE, Target Tissue: Type of Lesion: SKIN: PAPILLOMA, Dose [Carcinogen]: 50 UG ONCE, Promoter: 12-O-TETRADECANOYLPHORBOL-13-ACETATE, 16561-29-8","100%, 65%, 35%, not calculated"
C=C(NC(=O)Cc1ccccc1OC)C(=O)O,outcome,"Carcinogen: X-RAY, Dose [Inhibitor]: 0, 100 MG/KG 15 MIN PRIOR TO EACH IRRADIATION (STUDY DURATION: 14 MO), Route [Inhibitor]: INTRAPERITONEAL, Species: MOUSE, Strain/Sex: C57BL/MALE AND FEMALE, Target Tissue: Type of Lesion: THYMUS GLAND: LYMPHOMA, Dose [Carcinogen]: 175 RADS 1/WK FOR 4 WK (250 KV X-RAYS, PHILLIPS RT 200/250), Promoter: NONE USED","45%, 45%, 0%, not significant at 5 mo; 93%, >90%, <3%, not calculated"
same,outcome,"Carcinogen: X-RAY, Dose [Inhibitor]: 0, 200 MG/KG 15 MIN PRIOR TO SECOND AND FOURTH IRRADIATION (STUDY DURATION 14 MO), Route [Inhibitor]: INTRAPERITONEAL, Species: MOUSE, Strain/Sex: C57BL/MALE AND FEMALE, Target Tissue: Type of Lesion: THYMUS GLAND: LYMPHOMA, Dose [Carcinogen]: 175 RADS 1/WK FOR 4 WK (250 KV X-RAYS, PHILLIPS RT 200/250), Promoter: NONE USED","45%, 0%, 100%, not calculated at 5 mo; 93%, 40%, 57%, not calculated at 8 mo"
same,outcome,"Carcinogen: X-RAY, Dose [Inhibitor]: 0, 400 MG/KG ONCE 15 MIN PRIOR TO FIRST IRRADIATION (STUDY DURATION: 14 MO), Route [Inhibitor]: INTRAPERITONEAL, Species: MOUSE, Strain/Sex: C57BL/MALE AND FEMALE, Target Tissue: Type of Lesion: THYMUS GLAND: LYMPHOMA, Dose [Carcinogen]: 175 RADS 1/WK FOR 4 WK (250 KV X-RAYS, PHILLIPS RT 200/250), Promoter: NONE USED","45%, 10%, 78%, not calculated at 5 mo; 93%, >90%, <3%, not calculated at 8 mo"
Oc1ccc(/C=C/c2cc(O)cc(O)c2)cc1,outcome,"Carcinogen: Diethylnitrosamine, 55-18-5, Dose [Inhibitor]: 0, 50, 100, 300 mg/kg bw for 20 wk, Dose [Inhibitor]: 0, 50, 100, 300 mg/kg bw for 20 wk, Route [Inhibitor]: Oral (diet), Species: Rat, Strain/Sex: Sprague-Dawley/Female, Target Tissue: Type of Lesion: Liver: nodules, Dose [Carcinogen]: 200 mg/kg bw once in peanut oil after 4 wk on diet, study duration 20 wk, Promoter: Phenobarbital, 50-06-6",100%; 78%; 50% (p<0.05); 40% (p<0.05)
CCC(=O)O[C@H]1CC[C@H]2[C@@H]3CCC4=CC(=O)CC[C@]4(C)[C@H]3CC[C@]12C,"tumour outcome (control, treated, inhibition, significance)","Carcinogen: CADMIUM CHLORIDE, 10108-64-2, Dose [Inhibitor]: APPROXIMATELY NORMAL CIRCULATING LEVELS OF TESTOSTERONE BEGINNING 2 WK PRIOR TO CARCINOGEN TREATMENT, IMPLANTS REPLACED, Route [Inhibitor]: SUBCUTANEOUS IMPLANT, Species: RAT, Strain/Sex: F344/MALE, Target Tissue: Type of Lesion: HEMATOPOIETIC SYSTEM: LEUKEMIA, Dose [Carcinogen]: 20 UMOL 1/WK FOR 5 WK, Promoter: NONE USED","9/40 (23%), 10/37 (27%), -17%, not significant"
same,"tumour outcome (control, treated, inhibition, significance)","Carcinogen: CADMIUM CHLORIDE, 10108-64-2, Dose [Inhibitor]: APPROXIMATELY NORMAL CIRCULATING LEVELS OF TESTOSTERONE BEGINNING 2 WK PRIOR TO CARCINOGEN TREATMENT, IMPLANTS REPLACED, Route [Inhibitor]: SUBCUTANEOUS IMPLANT, Species: RAT, Strain/Sex: F344/MALE, Target Tissue: Type of Lesion: INJECTION SITE: SARCOMA, Dose [Carcinogen]: 20 UMOL 1/WK FOR 5 WK, Promoter: NONE USED","28/40 (70%), 22/37 (59%), 16%, not significant"
same,"tumour outcome (control, treated, inhibition, significance)","Carcinogen: CADMIUM CHLORIDE, 10108-64-2, Dose [Inhibitor]: APPROXIMATELY NORMAL CIRCULATING LEVELS OF TESTOSTERONE BEGINNING 2 WK PRIOR TO CARCINOGEN TREATMENT, IMPLANTS REPLACED, Route [Inhibitor]: SUBCUTANEOUS IMPLANT, Species: RAT, Strain/Sex: F344/MALE, Target Tissue: Type of Lesion: TESTES: TUMOR, Dose [Carcinogen]: 20 UMOL 1/WK FOR 5 WK, Promoter: NONE USED","34/40 (85%), 0/37 (0%), 100%, p<0.05"
same,"tumour outcome (control, treated, inhibition, significance)","Carcinogen: N-NITROSOBIS(2-OXOPROPYL)AMINE, 60599-38-4, Dose [Inhibitor]: 0, 40 MG PELLET INSERTED IN THE INTERSCAPULAR REGION AND REPLACED EVERY 6 WK FOR LIFE BEGINNING POST LAST CARCINOGEN DOS, Route [Inhibitor]: SUBCUTANEOUS, Species: RAT, Strain/Sex: MRC/MALE, Target Tissue: Type of Lesion: COLON: TUMOR, Dose [Carcinogen]: 10 MG/KG 1/WK FOR 20 WK, Promoter: NONE USED","2/26 (8%), 1/24 (4%), 50%, not calculated"
same,"tumour outcome (control, treated, inhibition, significance)","Carcinogen: N-NITROSOBIS(2-OXOPROPYL)AMINE, 60599-38-4, Dose [Inhibitor]: 0, 40 MG PELLET INSERTED IN THE INTERSCAPULAR REGION AND REPLACED EVERY 6 WK FOR LIFE BEGINNING POST LAST CARCINOGEN DOS, Route [Inhibitor]: SUBCUTANEOUS, Species: RAT, Strain/Sex: MRC/MALE, Target Tissue: Type of Lesion: RECTUM: TUMOR, Dose [Carcinogen]: 10 MG/KG 1/WK FOR 20 WK, Promoter: NONE USED","9/26 (35%), 14/24 (58%), -66%, not calculated"
same,"tumour outcome (control, treated, inhibition, significance)","Carcinogen: N-NITROSOBIS(2-OXOPROPYL)AMINE, 60599-38-4, Dose [Inhibitor]: 0, 40 MG PELLET INSERTED IN THE INTERSCAPULAR REGION AND REPLACED EVERY 6 WK FOR LIFE BEGINNING WITH FIRST CARCINOGEN DO, Route [Inhibitor]: SUBCUTANEOUS, Species: RAT, Strain/Sex: MRC/MALE, Target Tissue: Type of Lesion: COLON: TUMOR, Dose [Carcinogen]: 10 MG/KG 1/WK FOR 20 WK, Promoter: NONE USED","2/26 (8%), 0/29 (0%), 100%, not calculated"
same,"tumour outcome (control, treated, inhibition, significance)","Carcinogen: N-NITROSOBIS(2-OXOPROPYL)AMINE, 60599-38-4, Dose [Inhibitor]: 0, 40 MG PELLET INSERTED IN THE INTERSCAPULAR REGION AND REPLACED EVERY 6 WK FOR LIFE BEGINNING WITH FIRST CARCINOGEN DO, Route [Inhibitor]: SUBCUTANEOUS, Species: RAT, Strain/Sex: MRC/MALE, Target Tissue: Type of Lesion: RECTUM: TUMOR, Dose [Carcinogen]: 10 MG/KG 1/WK FOR 20 WK, Promoter: NONE USED","9/26 (35%), 0/29 (0%), 100%, p<0.005"
same,"tumour outcome (control, treated, inhibition, significance)","Carcinogen: N-NITROSOBIS(2-OXOPROPYL)AMINE, 60599-38-4, Dose [Inhibitor]: 0, 40 MG PELLET INSERTED IN THE INTERSCAPULAR REGION AND REPLACED EVERY 6 WK FOR LIFE BEGINNING WITH FIRST CARCINOGEN DO, Route [Inhibitor]: SUBCUTANEOUS, Species: RAT, Strain/Sex: MRC/MALE, Target Tissue: Type of Lesion: RECTUM: TUMOR, Dose [Carcinogen]: 20 MG/KG 1/D FOR 3 D, Promoter: NONE USED","6/13 (46%), 0/25 (0%), 100%, p<0.005"
